In patent US20250304549A1, “HYDROXYAMIDE DERIVATIVE AND USE THEREOF” (SICHUAN HUIYU PHARMACEUTICAL CO., LTD., priority 2022, published 2025):
Counter-ions that a name gives are not always drawn.

How the values were obtained:
HDAC8 = HDAC8 (Homo sapiens (Human), UniProt Q9BY41); test: In vitro enzyme inhibition assay - HDAC (HDAC-Glo I/II), HDAC8; assay type: biochemical; conditions: read-out: HDAC IC50 (nM) HDAC 8
Description: 2. In Vitro Enzyme Inhibition Assay—HDAC
The effect of the compound on the enzymatic activity of pan-HDAC and two isoforms (HDAC1 and HDAC8) was examined using the HDAC-Glo I/II Assay and Screening System assay to assess the level of inhibition of HDAC protease activity and selectivity in each isoform. The proteins and detection reagents were from the HDAC-Glo™ I/II Assay and Screening System (Promega). A 1 mM stock solution of the compound was prepared in DMSO and diluted in a 5-fold gradient to create a series of 8 concentrations, and a specific volume of the highest concentration was diluted 25 times with HDAC Buffer to obtain 4× working solution of the compound. […] The 384-well plate was then read on a multifunctional microplate reader, with the Luminescence channel selected to record Luminescence values (RLU). The inhibition rate was calculated using the following formula: […]
Note: ‘Negative’ refers to the group without the inhibitor; ‘Blank’ refers to the group without the enzyme.
The IC50 value was calculated by fitting the inhibition rate by GraphPad Prism software, employing log (inhibitor) vs. response-Variable Slope (four parameters) model.

NCI-H69 cells = test: In vitro cell inhibition assay - NCI-H69 cell proliferation (CellTiter-Glo); assay type: cell-based; conditions: Homo sapiens, NCI-H69, H69 small cell lung cancer cell proliferation
How it was run: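 Luminescence from CellTiter-Glo reagent served as the viability read-out after cells were exposed to compounds for 7 days at 37° C. Eight concentrations in a 5-fold series were tested in medium with 20% FBS. Inhibition was normalised to untreated and cell-free wells before IC50 fitting.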

LSD1 = LSD1 (Homo sapiens (Human), UniProt O60341); test: In vitro enzyme inhibition assay - LSD1 (HTRF); assay type: biochemical
NCI-H1417 cells = test: In vitro cell inhibition assay - H1417 cell proliferation (CellTiter-Glo); assay type: cell-based; conditions: Homo sapiens, NCI-H1417, H1417 small cell lung cancer cell proliferation
How it was run: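 Cells exposed to 8 compound concentrations (5-fold dilutions) in BEGM with 10% FBS for 7 days at 37° C., 5% CO2. Viable cells measured by CellTiter-Glo luminescence; inhibition versus no-inhibitor and no-cell controls, IC50 fitted.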

pan-HDAC = test: In vitro enzyme inhibition assay - HDAC (HDAC-Glo I/II), pan-HDAC; assay type: biochemical
How it was run: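 Eight compound concentrations (5-fold steps from a 1 mM DMSO stock) tested against pan-HDAC, HDAC1 and HDAC8 with HDAC-Glo I/II reagents, luminescence read-out. Percent inhibition normalized to no-inhibitor and no-enzyme wells; IC50 derived by four-parameter logistic fit.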

Chain of HDAC8 (Q9BY41 whole entry): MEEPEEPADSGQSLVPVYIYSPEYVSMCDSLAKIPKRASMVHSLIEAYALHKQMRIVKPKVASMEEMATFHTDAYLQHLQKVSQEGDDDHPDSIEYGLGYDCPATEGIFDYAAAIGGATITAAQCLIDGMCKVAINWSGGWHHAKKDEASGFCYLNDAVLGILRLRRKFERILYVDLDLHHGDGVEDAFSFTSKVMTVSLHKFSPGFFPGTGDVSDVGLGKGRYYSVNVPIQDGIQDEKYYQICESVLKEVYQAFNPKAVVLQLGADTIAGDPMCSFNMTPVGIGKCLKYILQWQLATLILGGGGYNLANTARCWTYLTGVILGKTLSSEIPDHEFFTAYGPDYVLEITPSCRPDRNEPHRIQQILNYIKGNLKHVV

Row | Structure (SMILES) | IC50 (HDAC8) | IC50 (NCI-H69 cells) | IC50 (LSD1) | IC50 (NCI-H1417 cells) | IC50 (pan-HDAC)
1 | COc1ccc(-c2cnc(N3CCC(NCc4ccc(/C=C/C(=O)NO)cc4)CC3)c(C#N)c2-c2ccc(C#N)c(O)c2)cc1O [Example 166, (E)-3-(4-(((1-(3-Cyano-4-(4-cyano-3-hydroxyphenyl)-5-(3-hydroxy-4-methoxyphenyl)pyridin-2-yl)piperidin-4-yl)amino)methyl)phenyl-N-hydroxyacrylamide hydrochloride] | 64 nM | 208 nM | 15.1 nM | 61.6 nM | 2.27 nM
2 | COc1ccc(-c2cnc(N3CCC(NCC4CC=C(/C=C/C(=O)NO)CC4)CC3)c(C#N)c2-c2ccc(C#N)c(F)c2)cc1O (centres unmarked) [Example 155, (E)-3-(4-(((1-(3-Cyano-4-(4-cyano-3-fluorophenyl)-5-(3-hydroxy-4-methoxyphenyl)pyridin-2-yl)piperidin-4-yl)amino)methyl)cyclohex-1-en-1-yl)-N-hydroxyacrylamide formate] | 23.7 nM | 314 nM | 0.58 nM | 11.5 nM | 20 nM
3 | N#Cc1ccc(-c2c(-c3ccc(C(F)(F)F)c(O)c3)cnc(N3CCC(NCc4cnc(CCC(=O)NO)nc4)CC3)c2C#N)cc1F [Example 195, 3-(5-(1-(3-Cyano-4-(4-cyano-3-fluorophenyl)-5-(3-hydroxy-4-trifluoromethylphenyl)pyridin-2-yl)piperidin-4-ylamino)methyl) pyrimidin-2-yl)-N-hydroxypropanamide formate] | 172 nM | 1670 nM | 4.12 nM | 52.4 nM | 11.8 nM
4 | COc1ccc(-c2cnc(N3CCC(NCc4ccc(OC(C)C(=O)NO)cc4)CC3)c(C#N)c2-c2ccc(C#N)c(F)c2)cc1O (centres unmarked) [Example 183, 2-(4-(((1-(3-Cyano-4-(4-cyano-3-fluorophenyl)-5-(3-hydroxy-4-methoxyphenyl)pyridin-2-yl)piperidin-4-yl)amino)methyl)phenoxy)-N-hydroxypropanamide formate] | 3720 nM | 742 nM | 0.09 nM | 1.49 nM | 970 nM
5 | COc1ccc(-c2cnc(N3CCC(NCc4ccc(CCC(=O)NO)c(C#N)c4)CC3)c(C#N)c2-c2ccc(C#N)c(F)c2)cc1O [Example 193, 3-(2-Cyano-4-((1-(3-cyano-4-(4-cyano-3-fluorophenyl)-5-(3-hydroxy-4-methoxyphenyl)pyridin-2-yl)piperidin-4-yl)amino)methyl) phenyl)-N-hydroxypropanamide formate] | 297 nM | 221 nM | 1.71 nM | 12.6 nM | 8.36 nM
6 | COc1ccc(-c2cnc(N3CCC(NCc4ccc(/C=C/C(=O)NO)c5[nH]ncc45)CC3)c(C#N)c2-c2ccc(C#N)c(F)c2)cc1O [Example 180, (E)-3-(4-(((1-(3-Cyano-4-(4-cyano-3-fluorophenyl)-5-(3-hydroxy-4-methoxyphenyl)pyridin-2-yl)piperidin-4-yl)amino)methyl)-1H-indazol-7-yl)-N-hydroxyacrylamide formate] | 1240 nM | 5040 nM | 0.11 nM | 3.63 nM | 23.4 nM
7 | CC(C)(O)COc1ccc(-c2cnc(N3CCC(NCc4cnc(CCC(=O)NO)s4)CC3)c(C#N)c2-c2ccc(C#N)c(F)c2)cc1O [Example 185, 3-(5-((1-(3-Cyano-4-(4-cyano-3-fluorophenyl)-5-(3-hydroxy-4-(2-hydroxy-2-methylpropoxy)phenyl)pyridin-2-yl)piperidin-4-yl)amino)methyl)thiazol-2-yl)-N-hydroxypropanamide formate] | 2160 nM | 275 nM | 3.9 nM | 6.16 nM | 60.1 nM
8 | N#Cc1ccc(-c2c(-c3ccc(C(F)(F)F)c(O)c3)cnc(N3CCC(NCc4cnc(/C=C/C(=O)NO)nc4)CC3)c2C#N)cc1F [Example 186, (E)-3-(5-(((1-(3-Cyano-4-(4-cyano-3-fluorophenyl)-5-(3-hydroxy-4-(trifluoromethyl)phenyl)pyridin-2-yl)piperidin-4-yl)amino)methyl)pyrimidin-2-yl)-N-hydroxyacrylamide formate] | 50.9 nM | 85 nM | 10.2 nM | 23.5 nM | 11.9 nM

Further lines, results first:

Row | IC50 (HDAC8) | IC50 (NCI-H69 cells) | IC50 (LSD1) | IC50 (NCI-H1417 cells) | IC50 (pan-HDAC) | Structure (SMILES)
9 | 332 nM | 432 nM | 0.44 nM | 2.66 nM | 38.1 nM | COc1ccc(-c2cnc(N3CCC(NCCOc4ccc(C(=O)NO)cc4)CC3)c(C#N)c2-c2ccc(C#N)c(F)c2)cc1O [Example 164, 4-(2-[(1-(3-Cyano-4-(4-cyano-3-fluorophenyl)-5-(3-hydroxy-4-methoxyphenyl)pyridin-2-yl)piperidin-4-yl)amino]ethoxy)-N-hydroxybenzamide formate]
10 | 184 nM | 80.6 nM | 1.12 nM | 5.59 nM | 1.48 nM | COc1ccc(-c2cnc(N3CCC(NCc4ccc(/C=C/C(=O)NO)nn4)CC3)c(C#N)c2-c2ccc(C#N)c(F)c2)cc1O [Example 160, (E)-3-(6-(((1-(3-Cyano-4-(4-cyano-3-fluorophenyl)-5-(3-hydroxy-4-methoxyphenyl)pyridin-2-yl)piperidin-4-yl)amino)methyl)pyridazin-3-yl)-N-hydroxyacrylamide formate]
11 | 26.2 nM | 89.2 nM | 1.58 nM | 5.14 nM | 2.37 nM | CC(C)(O)COc1ccc(-c2cnc(N3CCC(NCc4ccc(CCC(=O)NO)nc4)CC3)c(C#N)c2-c2ccc(C#N)c(F)c2)cc1O [Example 204, 3-(5-((((1-(3-Cyano-4-(4-cyano-3-fluorophenyl)-5-(3-hydroxy-4-(2-hydroxy-2-methylpropoxy)phenyl)pyridin-2-yl)piperidin-4-yl)amino)methyl)pyridin-2-yl)-N-hydroxypropanamide formate]
12 | 3.09 nM | 40.3 nM | 0.6 nM | 14.5 nM | 163 nM | COc1ccc(-c2cnc(N3CCC(NCc4ccc(CCC(=O)NO)cc4)CC3)c(C)c2-c2ccc(C#N)c(F)c2)cc1O [Example 209, 3-(4-(((1-(4-(4-Cyano-3-fluorophenyl)-5-(3-hydroxy-4-methoxyphenyl)-3-methylpyridin-2-yl)piperidin-4-yl)amino)methyl)phenyl)-N-hydroxypropanamide hydrochloride]
13 | 543 nM | 1030 nM | 1.09 nM | 119 nM | 7.27 nM | CNc1ccc(-c2cnc(N3CCC(NCc4ccc(CCC(=O)NO)cn4)CC3)c(C#N)c2-c2ccc(C#N)c(F)c2)cc1O [Example 194, 3-(6-((1-(3-Cyano-4-(4-cyano-3-fluorophenyl)-5-(3-hydroxy-4-(methylamino)phenyl)pyridin-2-yl)piperidin-4-yl)amino)methyl) pyridin-3-yl)-N-hydroxypropanamide hydrochloride]
14 | 51.1 nM | 77.6 nM | 1.08 nM | 15 nM | 13.3 nM | COc1ccc(-c2c(C#N)cc(N3CCC(NCc4cnc(/C=C/C(=O)NO)nc4)CC3)nc2-c2ccc(C#N)c(F)c2)cc1O [Example 234, (E)-3-(5-(((1-(4-Cyano-6-(4-cyano-3-fluorophenyl)-5-(3-hydroxy-4-methoxyphenyl)pyridin-2-yl)piperidin-4-yl)amino)methyl)pyrimidin-2-yl)-N-hydroxyacrylamide formate]
15 | 304 nM | 65 nM | 0.58 nM | 3.13 nM | 6.83 nM | Cc1c(O)cc(-c2cnc(N3CCC(NCc4ccc(/C=C/C(=O)NO)cc4)CC3)c(C#N)c2-c2ccc(C#N)c(F)c2)cc1F [Example 161, (E)-3-(4-(((1-(3-Cyano-4-(4-cyano-3-fluorophenyl)-5-(3-fluoro-5-hydroxy-4-methylphenyl)pyridin-2-yl)piperidin-4-yl)amino)methyl)phenyl)-N-hydroxyacrylamide formate]
16 | 87.8 nM | 250 nM | 0.73 nM | 93.6 nM | 0.61 nM | COc1cc(O)c(-c2cnc(N3CCC(NCc4ccc(/C=C/C(=O)NO)cc4)CC3)c(C#N)c2-c2ccc(C#N)c(F)c2)cc1O [Example 158, (E)-3-(4-(((1-(3-Cyano-4-(4-cyano-3-fluorophenyl)-5-(2,5-dihydroxy-4-methoxyphenyl)pyridin-2-yl)piperidin-4-yl)amino)methyl)phenyl)-N-hydroxyacrylamide trifluoroacetate]
